Assay results reported in patent US9173422B2, “Compositions including pyruvate for companion animals and methods of use thereof” (Hill's Pet Nutrition, Inc., priority 2009, dated 2015).

Assay: Canine pyruvate study blood chemistry
Assay type: in vivo
Details: dogs fed pyruvate compared to similar foods containing fish oil
Excerpt: 40 dogs were fed a control food for 28 days prior to start of the study. At day 0, dogs were allotted to one of three experimental foods, control+fish oil, control+pyruvate, or control+fish oil and pyruvate. Dogs were fed the experimental foods for 45 days. [table]

CC(=O)C(=O)O [pyruvate, calcium pyruvate]
blood urea nitrogen: reduced | creatinine: reduced
